The results in this text go back to patent US9226929B2, “Pharmaceutically active disubstituted triazine derivatives” (Bayer Intellectual Property GMBH, priority 2011, dated 2016).

pIC50: −log10 of the molar value.

As a reminder, the pIC50 is −log10 of the IC50, conventionally taken in molar units.

The assay deals with cellular CDK9 activity (RNA Polymerase II Ser2 phosphorylation). Kind of assay: RNA-Polymerase II Ser2 Cellular Phosphorylation Assay. The class given is cell-based. The settings on record: Homo sapiens; HCT-116 cells, normalized with tubulin; read-out: RNA Polymerase II Ser2 Phosphorylation (activity range), IC50. As for the experimental part:
3.1 RNA-Polymerase II Ser2 Cellular Phosphorylation Assay:
HCT-116 cells (DSMZ, Braunschweig, Germany) were maintained in Mc Coy's cell culture medium+glutamine (PAN Biotech GmbH, Aidenbach, Germany) supplemented with 10% fetal calf serum (PAA Laboratories GmbH, Pasching, Austria) and grown at 37° C., 5% CO2. For the cellular phosphorylation assay, cells were seeded with 2×10^5 cells/well/1 ml in 24-well plates (Greiner Bio One, Frickenhausen, Germany; catalog #662160). The compounds of general formula (I) summarized in Table 6 were diluted from a 10 mM DMSO stock solution 1:10 in a total volume of 15 μL DMSO. After overnight incubation at 37° C./5% CO2, 1.5 μL of a compound diluted in DMSO was added to each sample well. Wells with cells and 0.15% DMSO in culture medium were used as positive controls, wells without cells and 0.15% DMSO in culture medium were used as negative controls. […] Phosphorylation of RNA Polymerase II Ser2 and tubulin levels for normalization were analyzed afterwards with the Multi-Array technology (Meso Scale Discovery, Gaithersburg, Md., USA), a combination of antibody coupled electrochemiluminescence detection and patterned arrays. […] Finally, plates were washed three times with Tris Wash Buffer, 150 μl 2× Read Buffer (Meso Scale Discovery) were added per well and plates were analyzed immediately in a Sector Imager from Meso Scale Discovery. […]

With `NS(=O)(=O)Cc1cccc(Nc2ncnc(N3CCc4ncccc4C3)n2)c1` [Compound B38, 3-[(4-(7,8-Dihydro-1,6-naphthyridin-6(5H)-yl)-1,3,5-triazin-2-yl)amino]-benzenemethanesulfonamide], the pIC50 was under 5.00.
